Several values for one entry are separate records, joined by “and”; a condition that tells them apart may be missing. Equal values may be shown once. Blank lines part the entries; values can stand above or below the compound they belong to.
Test: solvent given as SMILES

absorption maximum (in C1CCOC1): 665 nm
Structure (SMILES): F[B-]1(F)n2c(/C=C/c3ccc(C(=C(c4ccccc4)c4ccccc4)c4ccccc4)cc3)ccc2C(c2ccccc2)=C2C=CC(/C=C/c3ccc(C(=C(c4ccccc4)c4ccccc4)c4ccccc4)cc3)=[N+]21

absorption maximum (in CCOC(C)=O): 259 nm
Structure (SMILES): CCn1c(-c2ccc(OC)cc2)c(-c2ccc3ccccc3c2)c(-c2ccc3ccccc3c2)c1-c1ccc(OC)cc1

absorption maximum (in ClCCl): 417 nm
Structure (SMILES): CCN(CC)c1ccc2cc(-c3ccc(-c4ccc(-c5cc6ccc(N(CC)CC)cc6oc5=O)cc4)cc3)c(=O)oc2c1

absorption maximum (in ClC(Cl)Cl): 570 nm
Structure (SMILES): CCCCCCCCCCCCOc1cc2c3c(ccc4c5c(OCCCCCCCCCCCC)cc6c7c(ccc(c1c34)c75)C(=O)N(C1CCCCC1)C6=O)C(=O)N(C1CCCCC1)C2=O

absorption maximum (in CO): 375 nm
Structure (SMILES): O=C(O)CCCc1ccc2ccc3cccc4ccc1c2c34

absorption maximum (in C1COCCO1): 536 nm
absorption maximum (in CN(C)C=O): 543 nm
absorption maximum (in CO): 538 nm
absorption maximum (in CS(C)=O): 545 nm
absorption maximum (in c1ccccc1): 544 nm
Structure (SMILES): O=C1/C(=C2\Sc3ccccc3C2=O)Sc2ccccc21

absorption maximum (in CC#N): 351 nm
Structure (SMILES): O=c1oc2ccccc2cc1/C=C/c1ccccc1

absorption maximum (in C1CCOC1): 409 nm
Structure (SMILES): O=c1oc2cccc3c4cccc5ccc6c7ccccc7c1c(c23)c6c54

absorption maximum (in C1CCOC1): 342 nm
Structure (SMILES): F[B-]1(F)Oc2c(-c3cccc4c3O[B-](F)(F)[n+]3c(-c5ccccc5)c(-c5ccccc5)n(-c5ccc(C(F)(F)F)cc5)c3-4)cccc2-c2n(-c3ccc(C(F)(F)F)cc3)c(-c3ccccc3)c(-c3ccccc3)[n+]21

absorption maximum (in CS(C)=O): 398 nm
Structure (SMILES): N#Cc1c(/C=C/c2ccc(N(c3ccccc3)c3ccccc3)cc2)cc(-c2ccccc2)cc1N1CCCCC1

absorption maximum (in CC#N): 379 nm
Structure (SMILES): N#C/C(=C\c1ccc(C#N)cc1)c1nc(-c2ccccc2)c(-c2ccccc2)s1

absorption maximum (in CCCCCC): 439 nm
absorption maximum (in CO): 443 nm
Structure (SMILES): O=C1C=C(Nc2ccc(F)cc2F)C(=O)c2ccccc21

absorption maximum (in ClCCl): 353 nm
Structure (SMILES): O=c1cc(-c2ccccc2)oc(-c2nc3ccccn3c2NC2CCCCC2)c1

absorption maximum (in ClC(Cl)Cl): 328 nm
Structure (SMILES): CCCCCCN1C(=O)c2cccc3cc(/N=C\c4cnc5ccccc5c4)cc(c23)C1=O

absorption maximum (in ClCCl): 375 nm
Structure (SMILES): c1ccc(-c2c3ccccc3c(-c3ccc4ccccc4c3)c3ccccc23)nc1

absorption maximum (in CCO): 590 nm
absorption maximum (in ClCCl): 587 nm
absorption maximum (in O): 588 nm
Structure (SMILES): CCOC(=O)c1ccccc1-c1c2ccc(=[N+](CC)CC)cc-2oc2c1oc1cc(N)ccc12

absorption maximum (in ClC(Cl)Cl): 732 nm
Structure (SMILES): CCCCCCCCCCOc1cc(OCCCCCCCCCC)cc(C2=C3C(/C=C/c4ccc(OC)cc4)=C(C#Cc4ccc(C(C)(C)C)cc4)C(/C=C/c4ccc(OC)cc4)=[N+]3[B-](F)(F)n3c(/C=C/c4ccc(OC)cc4)c(C#Cc4ccc(C(C)(C)C)cc4)c(/C=C/c4ccc(OC)cc4)c32)c1

absorption maximum (in C1CCOC1): 381 nm
Structure (SMILES): CC(C)(C)c1cc2c3c(c1)-c1cccc4c1N(B3N1c3ccccc3Sc3cccc-2c31)c1ccccc1S4

absorption maximum (in ClCCl): 536 nm
Structure (SMILES): COc1ccc2cc(-c3cc(-c4ccccc4)c4n3[B-](F)(F)[N+]3=C5C=NC=CN5[B-](F)(F)[N+]3=C4)ccc2c1

absorption maximum (in ClC(Cl)Cl): 342 nm
Structure (SMILES): CC(C)(C)c1ccc2oc3nc4oc5ccc(N(c6ccccc6)c6ccccc6)cc5c4cc3c2c1

absorption maximum (in CC#N): 500 nm
absorption maximum (in CCO): 499 nm
absorption maximum (in CN(C)C=O): 515 nm
absorption maximum (in O): 497 nm
Structure (SMILES): Nc1ccc2c(-c3ccccc3C(=O)[O-])c3ccc(=[NH2+])cc-3oc2c1

absorption maximum (in ClCCl): 369 nm
Structure (SMILES): CCCCC(CC)Cn1c2cc(-c3ccc(N(c4ccccc4)c4ccccc4)cc3)c(C#N)cc2c2cc(C#N)c(-c3ccc(N(c4ccccc4)c4ccccc4)cc3)cc21 (stereo not drawn)

absorption maximum (in ClC(Cl)Cl): 346 nm
Structure (SMILES): CC(C)(C)c1ccc2c(c1)c1cc(C(C)(C)C)ccc1n2-c1ccc2oc3nc4oc5cc(C(F)(F)F)ccc5c4cc3c2c1

absorption maximum (in CO): 451 nm
Structure (SMILES): O=C1C=C(Nc2ccc([N+](=O)[O-])cc2)C(=O)c2ccccc21

The next lines start with the compound.

Structure (SMILES): C[Si](C)(C)c1sc([Si](C)(C)C)c2c1sc1c3sc4c(sc5c4sc4c([Si](C)(C)C)sc([Si](C)(C)C)c45)c3sc12
absorption maximum (in ClC(Cl)Cl): 405 nm

Structure (SMILES): COc1ccc(-n2nc(C(=O)N3CCCC3)c(N3CCCC3)n2)cc1
absorption maximum (in CC#N): 328 nm
absorption maximum (in CCCCCC): 332 nm
absorption maximum (in CCO): 328 nm
absorption maximum (in CN(C)C=O): 334 nm
absorption maximum (in ClC(Cl)Cl): 331 nm

Structure (SMILES): CCCCc1ccc(-n2c3c4ccc(C(F)(F)F)cc4nnc3c3c2c2nnc4cc(C(F)(F)F)ccc4c2n3-c2ccc(CCCC)cc2)cc1
absorption maximum (in Cc1ccccc1): 322 nm

Structure (SMILES): N#CC1=C(c2ccc(-c3cccs3)s2)CC1
absorption maximum (in C1CCOC1): 366 nm
absorption maximum (in CC#N): 364 nm
absorption maximum (in CCCCCC): 361 nm
absorption maximum (in CCO): 367 nm
absorption maximum (in OCCOCCO): 371 nm
absorption maximum (in c1ccncc1): 372 nm

Structure (SMILES): CCCCCCc1ccc2c3c(ccc2c1)O[B-](F)(F)[N+](c1ccc([N+]2=Cc4c(ccc5cc(CCCCCC)ccc45)O[B-]2(F)F)cc1)=C3
absorption maximum (in C1CCOC1): 425 nm
absorption maximum (in CC#N): 422 nm
absorption maximum (in Cc1ccccc1): 436 nm
absorption maximum (in ClCCl): 430 nm

Structure (SMILES): O=C1c2cccc3cc4ccccc4c(c23)C(=O)N1Cc1ccccn1
absorption maximum (in C1CCOC1): 432 nm
absorption maximum (in CCCCCC): 427 nm
absorption maximum (in CCO): 436 nm
absorption maximum (in Cc1ccccc1): 435 nm
absorption maximum (in ClCCl): 437 nm

Structure (SMILES): CC[n+]1c(C=C2C(=O)C(C=C3N(C)c4ccc(Cl)cc4C3(C)C)=C2[O-])sc2ccccc21
absorption maximum (in CO): 634 nm
absorption maximum (in ClC(Cl)Cl): 649 nm
absorption maximum (in ClCCl): 650 nm

Structure (SMILES): N#Cc1cc(C#N)c(-c2ccc(N(c3ccccc3)c3ccccc3)cc2)cc1-c1ccc(N(c2ccccc2)c2ccccc2)cc1
absorption maximum (in Cc1ccccc1): 394 nm

Structure (SMILES): Cc1ccc(-c2cc(-c3ccccc3Cl)c3c(N)nc(N4CCCC4)c(C#N)c3n2)cc1
absorption maximum (in CC#N): 414 nm
absorption maximum (in CC(C)=O): 422 nm
absorption maximum (in CC(C)O): 414 nm
absorption maximum (in CO): 416 nm
absorption maximum (in ClC(Cl)Cl): 418 nm
absorption maximum (in ClCCl): 422 nm
absorption maximum (in c1ccccc1): 426 nm

Structure (SMILES): CN(C)c1ccc(/C=C/C=C/C2=NC3C(=O)NC(N)=NC3N2[C@H]2C[C@H](O)[C@@H](CO)O2)cc1 (stereo partly drawn)
absorption maximum (in C1COCCO1): 352 nm
absorption maximum (in CC#N): 349 nm
absorption maximum (in CO): 343 nm

Structure (SMILES): O=C(c1ccc(N2c3ccccc3Oc3ccccc32)cc1)c1cccc(C(=O)c2ccc(N3c4ccccc4Oc4ccccc43)cc2)c1
absorption maximum (in Cc1ccccc1): 416 nm

Structure (SMILES): O=c1c(Nc2ccccc2)c([O-])c1=[NH+]c1ccccc1
absorption maximum (in C1CCOC1): 401 nm
absorption maximum (in CC#N): 390 nm
absorption maximum (in CC(C)=O): 398 nm
absorption maximum (in CCO): 393 nm
absorption maximum (in CCOCC): 400 nm
absorption maximum (in CN1CCCC1=O): 393 nm
absorption maximum (in CN(C)C=O): 393 nm
absorption maximum (in CO): 390 nm
absorption maximum (in CS(C)=O): 378 nm
absorption maximum (in O): 374 nm

Structure (SMILES): CN(C)c1ccc(C2=Nc3sc4cc(F)ccc4[n+]3[B-](F)(F)O2)cc1
absorption maximum (in C1CCOC1): 425 nm
absorption maximum (in CC#N): 422 nm
absorption maximum (in CC(C)=O): 426 nm
absorption maximum (in Cc1ccccc1): 423 nm
absorption maximum (in ClCCl): 425 nm

Structure (SMILES): C#CC1CN2CCC1CC2[C@@H](O)c1ccnc2ccc(OC)cc12 (stereo partly drawn)
absorption maximum (in C1CCOC1): 332 nm
absorption maximum (in CC#N): 332 nm
absorption maximum (in CCCC#N): 332 nm
absorption maximum (in Cc1ccccc1): 332 nm
absorption maximum (in ClCCl): 333 nm

Structure (SMILES): N#C/C(=C\c1ccncc1)c1nc(-c2ccc(Cl)cc2)cs1
absorption maximum (in CC#N): 357 nm

Structure (SMILES): CC[N+]1(CC)CN2C(=N1)C(C(=O)O)=Cc1cc(Cl)ccc12
absorption maximum (in O): 377 nm

Structure (SMILES): O=S(=O)(c1ccc(-c2ccc(-n3c4ccccc4c4ccccc43)cc2)cc1)c1ccc(-c2ccc(-n3c4ccccc4c4ccccc43)cc2)cc1
absorption maximum (in Cc1ccccc1): 341 nm

Structure (SMILES): OCCSc1cccc2[n+]1[B-](F)(F)n1c(c3cccc4cccc1c43)=N2
absorption maximum (in C1CCOC1): 485 nm
absorption maximum (in CC#N): 480 nm
absorption maximum (in CCCCCC): 484 nm
absorption maximum (in Cc1ccccc1): 487 nm
absorption maximum (in ClCCl): 482 nm and 453 nm

Structure (SMILES): N#Cc1c(-n2c3ccc(I)cc3c3cc(I)ccc32)c(-n2c3ccc(I)cc3c3cc(I)ccc32)c(C#N)c(-n2c3ccc(I)cc3c3cc(I)ccc32)c1-n1c2ccc(I)cc2c2cc(I)ccc21
absorption maximum (in Cc1ccccc1): 361 nm

Structure (SMILES): CCCCCCCCCC1(CCCCCCCCC)c2cc(C#Cc3ccc(/C=C/c4ccc(N(CCCCCCCC)CCCCCCCC)cc4)cc3)ccc2-c2ccc(C#Cc3ccc(/C=C/c4ccc(N(CCCCCCCC)CCCCCCCC)cc4)cc3)cc21
absorption maximum (in Cc1ccccc1): 411 nm

Structure (SMILES): CCOC(=O)c1cc(C(=O)OCC)c2cc(O)ccc2n1
absorption maximum (in CCO): 364 nm

Structure (SMILES): CC[n+]1nc2cc3c(cc2c2cc(C)ccc21)N(C)CCC3
absorption maximum (in O): 487 nm

Structure (SMILES): COc1ccc(-c2cnc(/C=C/c3ccc(OC)c(OC)c3)o2)cc1
absorption maximum (in ClCCl): 360 nm

Structure (SMILES): CCCCCCCCCCn1cc(C2=C(c3cn(CCCCCCCCCC)c4ccccc34)C(=O)N(C)C2=O)c2ccccc21
absorption maximum (in C1CCCCC1): 462 nm
absorption maximum (in C1CCOC1): 471 nm
absorption maximum (in CC#N): 470 nm
absorption maximum (in CC(C)OC(C)C): 470 nm
absorption maximum (in CCCCOCCCC): 469 nm
absorption maximum (in CCO): 480 nm
absorption maximum (in CCOC(C)=O): 472 nm
absorption maximum (in CN(C)C=O): 474 nm
absorption maximum (in Cc1ccccc1): 472 nm
absorption maximum (in ClCCl): 477 nm

Structure (SMILES): O=C1CCCC2=C1CC1=C(CCCC1=O)N2NC(=O)c1ccccc1
absorption maximum (in C1CCOC1): 366 nm
absorption maximum (in CC#N): 368 nm
absorption maximum (in CC(C)=O): 366 nm
absorption maximum (in CCCCCO): 376 nm
absorption maximum (in CO): 374 nm
absorption maximum (in ClC(Cl)Cl): 370 nm
absorption maximum (in ClCCl): 364 nm

Structure (SMILES): COCCOCCOCCOCC(COCCOCCOCCOC)Oc1cc(/C=C/c2ccc(/C=C(\C#N)c3ccncc3)cc2)c(OC(COCCOCCOCCOC)COCCOCCOCCOC)cc1/C=C/c1ccc(/C=C(\C#N)c2ccncc2)cc1
absorption maximum (in ClCCl): 445 nm

Structure (SMILES): CCCCCCCCOc1cc(/C=C/c2ccncc2)c(OCCCCCCCC)cc1/C=C/c1ccncc1
absorption maximum (in ClCCl): 398 nm

Reference: the Deep4Chem optical property database
